Measurements published in ChEMBL document CHEMBL1201862, “PubChem BioAssay data set” (2004).
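Each compound was tested at five concentrations against cells in 96-well plates for 48 hours. GI50 is the concentration that inhibits growth by half.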 The source made the active and inactive calls. No stated cut-off is given here; in the data, active = GI50 up to about 1.1 µM and inactive = higher.

Legend:
Assay in all cases: DTP human tumour cell line panel, 48 h
CCRF-CEM = test system: CCRF-CEM
KM12 = test system: KM12
OVCAR-3 = test system: OVCAR-3
OVCAR-4 = test system: OVCAR-4
SK-OV-3 = test system: SK-OV-3
IGROV-1 = test system: IGROV-1
NCI-H522 = test system: NCI-H522
HCT-116 = test system: HCT-116
UACC-62 = test system: UACC-62
OVCAR-5 = test system: OVCAR-5
SW-620 = test system: SW-620
MDA-N = test system: MDA-N
UACC-257 = test system: UACC-257
K562 = test system: K562
HOP-62 = test system: HOP-62
HL-60 = test system: HL-60
SK-MEL-2 = test system: SK-MEL-2
SF-268 = test system: SF-268
SN12C = test system: SN12C
DMS-114 = test system: DMS-114

Structure (SMILES)	GI50 (CCRF-CEM)	GI50 (KM12)	GI50 (OVCAR-3)	GI50 (OVCAR-4)	GI50 (SK-OV-3)	GI50 (IGROV-1)	GI50 (NCI-H522)	GI50 (HCT-116)	GI50 (UACC-62)	GI50 (OVCAR-5)	GI50 (SW-620)	GI50 (MDA-N)	GI50 (UACC-257)	GI50 (K562)	GI50 (HOP-62)	GI50 (HL-60)	GI50 (SK-MEL-2)	GI50 (SF-268)	GI50 (SN12C)	GI50 (DMS-114)
CCC(NC(C)c1ccccc1)C(O)c1ccc(OCc2ccccc2)c(OCc2ccccc2)c1 (stereo unspecified)	14.2 µM (inactive)	5.81 µM (inactive)	12 µM (inactive)	16.4 µM (inactive)	15.5 µM (inactive)	18.6 µM (inactive)	15.7 µM (inactive)	14.5 µM (inactive)	17.5 µM (inactive)	13.1 µM (inactive)	4.57 µM (inactive)	15.3 µM (inactive)	4.04 µM (inactive)	3.22 µM (inactive)	17.9 µM (inactive)	13.8 µM (inactive)	14.9 µM (inactive)	19.4 µM (inactive)	15.1 µM (inactive)	–
Cc1ccc(-c2c3nc(c(-c4ccc(C)cc4)c4ccc([nH]4)c(-c4ccc(OCC5COC(C)(C)O5)cc4)c4nc(c(-c5ccc(C)cc5)c5ccc2[nH]5)C=C4)C=C3)cc1 (stereo unspecified)	> 10 µM (inactive)	> 31.6 µM (inactive)	> 31.6 µM (inactive)	> 31.6 µM (inactive)	> 10 µM (inactive)	> 31.6 µM (inactive)	> 31.6 µM (inactive)	> 31.6 µM (inactive)	> 10 µM (inactive)	> 31.6 µM (inactive)	> 31.6 µM (inactive)	> 31.6 µM (inactive)	> 31.6 µM (inactive)	> 10 µM (inactive)	> 31.6 µM (inactive)	> 10 µM (inactive)	> 31.6 µM (inactive)	> 31.6 µM (inactive)	> 31.6 µM (inactive)	–
CC1(C(O)c2ccccc2)CN(C(C)(C)C)C(=O)/C1=C\Sc1ccccc1 (stereo unspecified)	23.9 µM (inactive)	31.8 µM (inactive)	21.2 µM (inactive)	27.4 µM (inactive)	44.9 µM (inactive)	33.3 µM (inactive)	2.48 µM (inactive)	25.4 µM (inactive)	> 100 µM (inactive)	> 100 µM (inactive)	46.8 µM (inactive)	39.1 µM (inactive)	24.9 µM (inactive)	42.1 µM (inactive)	99.1 µM (inactive)	24.7 µM (inactive)	21.3 µM (inactive)	1.76 µM (inactive)	33.9 µM (inactive)	–
O=c1[nH]/c(=C/c2cccs2)c(=O)[nH]/c1=C/c1ccc(OCc2ccccc2)cn1	0.0327 µM (active)	0.59 µM (active)	< 0.0146 µM (active)	0.0836 µM (active)	0.0426 µM (active)	0.219 µM (active)	0.0171 µM (active)	0.0494 µM (active)	0.0638 µM (active)	3.87 µM (inactive)	0.0361 µM (active)	0.0164 µM (active)	0.116 µM (active)	< 0.0156 µM (active)	0.033 µM (active)	< 0.0182 µM (active)	0.0561 µM (active)	0.0521 µM (active)	0.064 µM (active)	–
Cc1cc2c(cn1)C(=O)OCC2	> 100 µM (inactive)	> 100 µM (inactive)	> 100 µM (inactive)	> 100 µM (inactive)	> 100 µM (inactive)	> 100 µM (inactive)	–	> 100 µM (inactive)	> 100 µM (inactive)	> 100 µM (inactive)	> 100 µM (inactive)	–	> 100 µM (inactive)	> 100 µM (inactive)	> 100 µM (inactive)	> 100 µM (inactive)	–	> 100 µM (inactive)	> 100 µM (inactive)	> 100 µM (inactive)
O=C(O)CCC(NC(=O)/C(=C/c1ccccc1)NC(=O)c1ccccc1)C(=O)O (stereo unspecified)	> 100 µM (inactive)	> 100 µM (inactive)	> 100 µM (inactive)	> 100 µM (inactive)	> 100 µM (inactive)	> 100 µM (inactive)	> 100 µM (inactive)	> 100 µM (inactive)	> 100 µM (inactive)	> 100 µM (inactive)	> 100 µM (inactive)	> 100 µM (inactive)	> 100 µM (inactive)	> 100 µM (inactive)	> 100 µM (inactive)	> 100 µM (inactive)	> 100 µM (inactive)	> 100 µM (inactive)	> 100 µM (inactive)	–
COc1cc2c(cc1C)NC(=O)/C2=C/c1c(Cl)[nH]c2cc(C)c(OC)cc12	0.458 µM (active)	4.22 µM (inactive)	1.94 µM (inactive)	5.48 µM (inactive)	1.3 µM (inactive)	1.32 µM (inactive)	5.25 µM (inactive)	3.85 µM (inactive)	2.07 µM (inactive)	7.78 µM (inactive)	3.64 µM (inactive)	2.84 µM (inactive)	9.64 µM (inactive)	4.36 µM (inactive)	10.1 µM (inactive)	0.187 µM (active)	8.38 µM (inactive)	2.79 µM (inactive)	1.86 µM (inactive)	–
